Among the data in patent publication US20260374751A1, “AMIDE PRODRUGS AND USES THEREOF” (Autobahn Therapeutics, Inc., priority 2022, published 2026) are EC50 values, retold here.

One experiment concerns the target S1P5 (Homo sapiens, UniProt Q9H228). Put plainly: S1P5 receptor agonism (EC50 statement). It counts as biochemical.
A further experiment concerns the target S1P1 (Homo sapiens, UniProt P21453). Put plainly: S1P1 receptor agonism (EC50 statement). Format: biochemical.

Chain of S1P5 (Q9H228 whole entry, species assumed): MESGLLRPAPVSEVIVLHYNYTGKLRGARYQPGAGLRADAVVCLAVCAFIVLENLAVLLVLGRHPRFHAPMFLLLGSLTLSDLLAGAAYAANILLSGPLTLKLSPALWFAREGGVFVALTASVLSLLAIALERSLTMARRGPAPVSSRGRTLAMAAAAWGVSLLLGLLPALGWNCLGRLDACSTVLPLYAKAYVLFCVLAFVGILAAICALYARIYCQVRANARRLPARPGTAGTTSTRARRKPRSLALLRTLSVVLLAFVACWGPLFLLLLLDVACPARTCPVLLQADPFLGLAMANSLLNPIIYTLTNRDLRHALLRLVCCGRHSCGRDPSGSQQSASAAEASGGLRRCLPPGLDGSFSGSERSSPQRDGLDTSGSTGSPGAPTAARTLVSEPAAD
Chain of S1P1 (P21453 whole entry, species assumed): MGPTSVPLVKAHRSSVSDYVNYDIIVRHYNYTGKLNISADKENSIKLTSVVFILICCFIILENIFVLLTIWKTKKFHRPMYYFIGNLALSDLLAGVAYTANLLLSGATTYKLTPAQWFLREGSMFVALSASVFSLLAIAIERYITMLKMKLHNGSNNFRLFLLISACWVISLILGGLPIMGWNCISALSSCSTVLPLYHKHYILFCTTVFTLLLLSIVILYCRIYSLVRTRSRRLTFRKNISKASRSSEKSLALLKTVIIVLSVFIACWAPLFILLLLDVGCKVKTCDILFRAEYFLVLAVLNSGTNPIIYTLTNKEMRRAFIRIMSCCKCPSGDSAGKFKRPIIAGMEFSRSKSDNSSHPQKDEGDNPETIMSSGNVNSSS

As usually defined, the EC50 is the midpoint of the concentration-response curve. A low value points to a more potent agent. Turning to `CCCc1ccc(COc2ccc3c(c2)CCC(CN2CC(C(=O)O)C2)=C3C)c(OC)c1` [Compound 1, ceralifimod], the 50% effective concentration (EC50) on S1P5 was 1 nM; on S1P1 it was 11.8 nM.
